Several values for one entry are separate records, joined by “and”; a condition that tells them apart may be missing. Equal values may be shown once. Inconclusive results and toxic doses are left out. The calls were made as follows: active = survival T/C of 150% or more; inactive = T/C below 125% in these data.
System: CD2F1 mice, L1210 leukemia ip, survival T/C
Assay: NCI In Vivo Anticancer Drug Screen. Data for tumor model L1210 Leukemia (intraperitoneal) in CD2F1 (CDF1) mice
Conditions: endpoint: mean survival time, higher = longer survival
Outline: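 Each value reflects a quotient of treated over vehicle control outcomes in mice with a transplanted tumor.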

[1] = dose: 12.5 mg/kg/injection, schedule: Q01DX009 (ip), vehicle: saline with Tween-80
[2] = dose: 100.0 mg/kg/injection, schedule: Q01DX009 (ip), vehicle: saline with Tween-80
[3] = dose: 100.0 mg/kg/injection, schedule: Q04DX003 (ip), vehicle: saline with Tween-80
[4] = dose: 200.0 mg/kg/injection, schedule: Q01DX009 (ip), vehicle: saline with Tween-80
[5] = dose: 200.0 mg/kg/injection, schedule: Q04DX003 (ip), vehicle: saline with Tween-80
[6] = dose: 400.0 mg/kg/injection, schedule: Q01DX009 (ip), vehicle: saline with Tween-80
[7] = dose: 400.0 mg/kg/injection, schedule: Q04DX003 (ip), vehicle: saline with Tween-80
[8] = dose: 100.0 mg/kg/injection, schedule: Q04DX003 (ip), vehicle: saline
[9] = dose: 200.0 mg/kg/injection, schedule: Q04DX003 (ip), vehicle: saline

Measured: T/C

COc1ccc2nc3cc(Cl)ccc3c(NCCNCCNCCNc3c4ccc(Cl)cc4nc4ccc(OC)cc34)c2c1
inactive: dose: 3.12 mg/kg/injection, schedule: Q01DX009 (ip), vehicle: Klucel (hydroxypropylcellulose) (HPC) 113 % of control | dose: 3.12 mg/kg/injection, schedule: Q01DX009 (ip), vehicle: saline with Tween-80 96 % of control | dose: 6.25 mg/kg/injection, schedule: Q01DX009 (ip), vehicle: Klucel (hydroxypropylcellulose) (HPC) 116 % of control | dose: 6.25 mg/kg/injection, schedule: Q01DX009 (ip), vehicle: saline with Tween-80 96 % of control | dose: 12.5 mg/kg/injection, schedule: Q01DX009 (ip), vehicle: Klucel (hydroxypropylcellulose) (HPC) 101 % of control | [1] 102 % of control | dose: 25.0 mg/kg/injection, schedule: Q01DX009 (ip), vehicle: saline with Tween-80 103 % of control | dose: 50.0 mg/kg/injection, schedule: Q01DX009 (ip), vehicle: Klucel (hydroxypropylcellulose) (HPC) 90 % of control | dose: 50.0 mg/kg/injection, schedule: Q01DX009 (ip), vehicle: saline with Tween-80 106 % of control | [2] 106 % of control

CN(C)Cc1ccc2ccccc2c1
inactive: dose: 50.0 mg/kg/injection, schedule: Q01DX001 (ip), vehicle: saline 102 % of control | dose: 100.0 mg/kg/injection, schedule: Q01DX001 (ip), vehicle: saline 97 % of control

C(=N/N=C/c1ccc2c(c1)OCO2)/c1ccco1
inactive: [3] 93 % of control | [4] 90 % of control | [5] 96 % of control | [6] 86 % of control | [7] 95 % of control

CC12CCC(C(=O)C1=O)C2(C)C (configuration not stated)
inactive: [3] 102 % of control | [5] 94 % of control | [7] 102 % of control

CC(=O)SCCNCC(C)(C)S
inactive: [8] 98 % of control | [9] 98 % of control | dose: 400.0 mg/kg/injection, schedule: Q04DX003 (ip), vehicle: saline 95 % of control

c1coc(-c2nc3ccccc3s2)c1
inactive: dose: 50.0 mg/kg/injection, schedule: Q01DX001 (ip), vehicle: Klucel (hydroxypropylcellulose) (HPC) 96 % of control | dose: 100.0 mg/kg/injection, schedule: Q01DX001 (ip), vehicle: Klucel (hydroxypropylcellulose) (HPC) 93 % of control and 95 % of control | dose: 200.0 mg/kg/injection, schedule: Q01DX001 (ip), vehicle: Klucel (hydroxypropylcellulose) (HPC) 120 % of control and 90 % of control

Cc1cc(Br)ccc1C(=O)O
inactive: dose: 100.0 mg/kg/injection, schedule: Q01DX001 (ip), vehicle: saline with Tween-80 94 % of control | dose: 200.0 mg/kg/injection, schedule: Q01DX001 (ip), vehicle: saline with Tween-80 91 % of control | dose: 400.0 mg/kg/injection, schedule: Q01DX001 (ip), vehicle: saline with Tween-80 102 % of control

CCOC(=O)C(=CN1CCCCC1)C(=O)OCC
inactive: [2] 92 % of control | [4] 94 % of control | [6] 96 % of control

O=c1[nH]c2ccccc2nc1CBr
inactive: dose: 3.75 mg/kg/injection, schedule: Q01DX009 (ip), vehicle: saline with Tween-80 98 % of control | dose: 7.5 mg/kg/injection, schedule: Q01DX009 (ip), vehicle: saline with Tween-80 110 % of control | [1] 113 % of control | dose: 15.0 mg/kg/injection, schedule: Q01DX009 (ip), vehicle: saline with Tween-80 104 % of control

O=P(O)(O)c1ccc(Oc2ccccc2)cc1
inactive: dose: 50.0 mg/kg/injection, schedule: Q04DX003 (ip), vehicle: saline 102 % of control | [8] 93 % of control | [9] 103 % of control

CCN1/C(=C/C(C)=C/c2sc3ccccc3[n+]2CC)Sc2ccccc21
inactive: dose: 5.0 mg/kg/injection, schedule: Q01DX001 (ip), vehicle: other 96 % of control | dose: 200.0 micrograms/kg/injection, schedule: Q04DX003 (ip), vehicle: Klucel (hydroxypropylcellulose) (HPC) 104 % of control | dose: 400.0 micrograms/kg/injection, schedule: Q04DX003 (ip), vehicle: Klucel (hydroxypropylcellulose) (HPC) 104 % of control

NC(CSC1(c2ccccc2)c2ccccc2-c2ccccc21)C(=O)O (configuration not stated)
inactive: dose: 25.0 mg/kg/injection, schedule: Q01DX009 (ip), vehicle: saline 96 % of control | dose: 50.0 mg/kg/injection, schedule: Q01DX009 (ip), vehicle: saline 102 % of control | dose: 100.0 mg/kg/injection, schedule: Q01DX009 (ip), vehicle: saline 100 % of control | dose: 200.0 mg/kg/injection, schedule: Q01DX009 (ip), vehicle: saline 100 % of control | dose: 400.0 mg/kg/injection, schedule: Q01DX009 (ip), vehicle: saline 110 % of control
